IC50, inhibition and Activity data for 10 compounds are collected here from ChEMBL document CHEMBL1932997, “Identification of oxazolidinediones and thiazolidinediones as potent 17β-hydroxysteroid dehydrogenase type 3 inhibitors” (Bioorg Med Chem Lett, 2012).

Assay [1] concerns the target T1, 17-beta-hydroxysteroid dehydrogenase type 3 (Homo sapiens, UniProt P37058).
T1 sequence (P37058 whole entry): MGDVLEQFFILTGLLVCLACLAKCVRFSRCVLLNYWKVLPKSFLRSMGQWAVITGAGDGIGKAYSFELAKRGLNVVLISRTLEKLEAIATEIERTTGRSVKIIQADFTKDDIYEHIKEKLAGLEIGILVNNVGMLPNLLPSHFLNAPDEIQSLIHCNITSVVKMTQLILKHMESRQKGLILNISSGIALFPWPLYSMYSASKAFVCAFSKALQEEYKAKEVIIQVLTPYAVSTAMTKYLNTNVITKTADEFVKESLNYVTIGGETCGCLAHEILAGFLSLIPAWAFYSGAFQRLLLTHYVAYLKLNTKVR
Put plainly: Inhibition of human 17beta-HSD3 expressed in HeLa cells assessed as conversion of 4-androstene-3,17-dione to testosterone. Format: cell-based. Particulars: for pIC50: read-out: IC50; for IC50: hela.

Assay [2] has as its target T2, 17-beta-hydroxysteroid dehydrogenase type 2 (Homo sapiens) (UniProt P37059).
T2 sequence (whole entry): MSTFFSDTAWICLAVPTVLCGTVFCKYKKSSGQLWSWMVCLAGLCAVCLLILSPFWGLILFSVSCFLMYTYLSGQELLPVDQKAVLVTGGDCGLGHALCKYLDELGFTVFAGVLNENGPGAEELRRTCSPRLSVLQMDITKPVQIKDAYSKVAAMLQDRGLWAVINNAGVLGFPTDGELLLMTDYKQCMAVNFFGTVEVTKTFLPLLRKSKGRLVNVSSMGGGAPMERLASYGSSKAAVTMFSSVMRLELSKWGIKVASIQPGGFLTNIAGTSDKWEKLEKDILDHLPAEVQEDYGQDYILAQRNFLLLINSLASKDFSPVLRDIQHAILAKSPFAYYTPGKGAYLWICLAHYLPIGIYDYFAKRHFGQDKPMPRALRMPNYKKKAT
Put plainly: Inhibition of 17beta-HSD2 expressed in HeLa cells assessed as conversion of estrone into estradiol. Format: cell-based.

Assay [3] addresses T3, Androgen receptor (Homo sapiens) (UniProt P10275).
T3 sequence (whole entry): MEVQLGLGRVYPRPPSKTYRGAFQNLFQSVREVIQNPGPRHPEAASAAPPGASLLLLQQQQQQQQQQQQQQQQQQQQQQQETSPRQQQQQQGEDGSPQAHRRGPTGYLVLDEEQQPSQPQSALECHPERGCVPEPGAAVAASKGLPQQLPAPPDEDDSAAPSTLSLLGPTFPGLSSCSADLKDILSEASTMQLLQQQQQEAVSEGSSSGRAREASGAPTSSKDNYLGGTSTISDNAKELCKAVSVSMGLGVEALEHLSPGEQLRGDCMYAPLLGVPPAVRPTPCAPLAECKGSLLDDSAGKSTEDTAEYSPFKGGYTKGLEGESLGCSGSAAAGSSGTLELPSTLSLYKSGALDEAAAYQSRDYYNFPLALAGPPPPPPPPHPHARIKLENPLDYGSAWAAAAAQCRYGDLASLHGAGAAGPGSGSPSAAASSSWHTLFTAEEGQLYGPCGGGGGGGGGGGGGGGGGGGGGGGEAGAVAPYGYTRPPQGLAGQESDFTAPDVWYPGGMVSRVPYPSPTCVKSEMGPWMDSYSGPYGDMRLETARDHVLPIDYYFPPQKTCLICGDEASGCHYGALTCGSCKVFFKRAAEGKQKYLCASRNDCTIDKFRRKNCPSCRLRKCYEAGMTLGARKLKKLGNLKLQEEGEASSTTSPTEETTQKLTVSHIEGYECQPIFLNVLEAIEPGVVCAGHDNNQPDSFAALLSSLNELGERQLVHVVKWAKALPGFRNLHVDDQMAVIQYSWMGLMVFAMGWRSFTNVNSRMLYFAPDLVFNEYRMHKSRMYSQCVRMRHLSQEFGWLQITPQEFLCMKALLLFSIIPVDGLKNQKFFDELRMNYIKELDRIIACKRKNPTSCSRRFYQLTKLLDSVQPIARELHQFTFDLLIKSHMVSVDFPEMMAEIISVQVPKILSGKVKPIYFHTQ
Put plainly: Antagonist activity at androgen receptor by transcriptional reporter gene assay. Format: functional. Background: In a reporter assay the amount or activity of a reporter protein is the signal.

Assay [4] concerns the target T4, 17-beta-hydroxysteroid dehydrogenase type 3 (Homo sapiens) (UniProt P37058).
T4 sequence (whole entry): T1 sequence (P37058 whole entry)
Conditions: HeLa, 10 uM.
Description: Inhibition of human 17beta-HSD3 activity expressed in HeLa cells assessed as conversion of 4-androstene-3,17-dione to testosterone at 10 uM

Assay [5] concerns the target T5, 17-beta-hydroxysteroid dehydrogenase type 3 (Mus musculus, UniProt P70385).
T5 sequence (P70385 whole entry): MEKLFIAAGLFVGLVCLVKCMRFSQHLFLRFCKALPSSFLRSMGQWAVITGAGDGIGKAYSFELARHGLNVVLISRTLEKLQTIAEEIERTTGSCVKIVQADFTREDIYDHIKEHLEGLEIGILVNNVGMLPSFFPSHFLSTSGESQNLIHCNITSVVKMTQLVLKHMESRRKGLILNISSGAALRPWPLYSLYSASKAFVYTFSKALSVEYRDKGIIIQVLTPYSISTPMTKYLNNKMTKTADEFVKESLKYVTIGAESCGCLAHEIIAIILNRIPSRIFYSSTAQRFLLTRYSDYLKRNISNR
Put plainly: Inhibition of 17beta-HSD3 in mouse testes homogenate. Format: tissue-based, Testis.

Assay [6] deals with T6, Estrogen receptor (Homo sapiens) (UniProt P03372).
T6 sequence (whole entry): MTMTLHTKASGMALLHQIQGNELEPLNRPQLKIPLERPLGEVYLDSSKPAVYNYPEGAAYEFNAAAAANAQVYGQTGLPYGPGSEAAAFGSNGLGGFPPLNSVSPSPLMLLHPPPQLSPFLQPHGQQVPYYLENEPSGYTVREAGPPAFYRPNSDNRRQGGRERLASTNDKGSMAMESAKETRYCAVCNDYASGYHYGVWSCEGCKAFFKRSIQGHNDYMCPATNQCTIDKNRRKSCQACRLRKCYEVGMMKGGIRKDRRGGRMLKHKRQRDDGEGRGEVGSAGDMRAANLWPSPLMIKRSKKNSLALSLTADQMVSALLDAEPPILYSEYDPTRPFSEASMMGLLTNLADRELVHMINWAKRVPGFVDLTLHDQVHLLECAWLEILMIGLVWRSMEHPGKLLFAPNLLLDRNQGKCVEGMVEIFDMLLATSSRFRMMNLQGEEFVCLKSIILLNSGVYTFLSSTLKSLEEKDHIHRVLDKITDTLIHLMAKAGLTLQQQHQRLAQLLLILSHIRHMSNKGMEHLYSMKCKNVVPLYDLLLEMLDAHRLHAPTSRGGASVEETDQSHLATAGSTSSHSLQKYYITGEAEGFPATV
Put plainly: Antagonist activity at ERalpha by transcriptional reporter gene assay. Format: functional.

Assay [7] deals with T7, Glucocorticoid receptor (Homo sapiens) (UniProt P04150).
T7 sequence (whole entry): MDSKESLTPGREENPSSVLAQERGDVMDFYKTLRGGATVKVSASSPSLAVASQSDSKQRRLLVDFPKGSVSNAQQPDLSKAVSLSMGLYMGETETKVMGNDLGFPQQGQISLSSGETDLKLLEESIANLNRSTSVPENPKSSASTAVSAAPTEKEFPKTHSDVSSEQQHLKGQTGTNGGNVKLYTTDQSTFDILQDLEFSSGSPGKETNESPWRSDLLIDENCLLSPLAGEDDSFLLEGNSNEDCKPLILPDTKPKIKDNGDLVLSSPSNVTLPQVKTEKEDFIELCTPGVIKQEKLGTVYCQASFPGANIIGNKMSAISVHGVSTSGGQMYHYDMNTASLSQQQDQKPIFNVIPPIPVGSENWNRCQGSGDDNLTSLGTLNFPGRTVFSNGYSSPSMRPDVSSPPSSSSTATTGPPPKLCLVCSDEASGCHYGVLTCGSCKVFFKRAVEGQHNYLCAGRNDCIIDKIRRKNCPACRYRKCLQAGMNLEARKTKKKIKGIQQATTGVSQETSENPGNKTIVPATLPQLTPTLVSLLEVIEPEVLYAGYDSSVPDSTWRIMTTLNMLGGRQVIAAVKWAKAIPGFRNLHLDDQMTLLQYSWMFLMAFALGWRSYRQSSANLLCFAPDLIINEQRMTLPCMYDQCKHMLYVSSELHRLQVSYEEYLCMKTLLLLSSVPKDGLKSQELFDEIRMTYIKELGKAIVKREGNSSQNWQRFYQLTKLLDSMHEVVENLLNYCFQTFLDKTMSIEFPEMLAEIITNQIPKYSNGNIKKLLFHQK
Put plainly: Agonist activity at glucocorticoid receptor by transcriptional reporter gene assay. Format: functional.

Assay [8] deals with T1, 17-beta-hydroxysteroid dehydrogenase type 3. Put plainly: Inhibition of 17beta-HSD3 in human testes homogenate. Format: tissue-based, Testis.
Assay [9] has as its target T3, Androgen receptor (Homo sapiens). Put plainly: Agonist activity at androgen receptor by transcriptional reporter gene assay. Format: functional.
Assay [10] addresses T8, 17-beta-hydroxysteroid dehydrogenase type 1 (Homo sapiens) (UniProt P14061).
T8 sequence (whole entry): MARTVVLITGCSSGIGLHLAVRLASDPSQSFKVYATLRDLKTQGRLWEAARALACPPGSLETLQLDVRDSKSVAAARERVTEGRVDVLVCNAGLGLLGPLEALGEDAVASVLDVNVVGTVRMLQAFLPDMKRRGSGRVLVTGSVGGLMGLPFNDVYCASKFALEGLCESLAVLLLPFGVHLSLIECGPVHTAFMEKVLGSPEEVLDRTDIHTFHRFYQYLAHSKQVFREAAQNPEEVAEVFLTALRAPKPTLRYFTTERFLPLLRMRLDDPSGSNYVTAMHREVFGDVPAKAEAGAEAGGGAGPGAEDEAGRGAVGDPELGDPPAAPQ
Put plainly: Inhibition of 17beta-HSD1 expressed in HeLa cells assessed as conversion of estrone into estradiol. Format: cell-based.

The nature of assay [11]: Inhibition of 17beta-HSD3 in marmoset testes homogenate. Format: tissue-based, Callitrichinae sp., Testis.
Assay [12] addresses T7, Glucocorticoid receptor (Homo sapiens). Put plainly: Antagonist activity at glucocorticoid receptor by transcriptional reporter gene assay. Format: functional.
For assay [13], the target named is T6, Estrogen receptor (Homo sapiens). Put plainly: Agonist activity at ERalpha by transcriptional reporter gene assay. Format: functional.

pIC50: −log10 of the molar value. Active and inactive are the calls of the source. The rule behind the calls is not given here.

For the compound `COc1ccc(N2C(=O)S/C(=C\c3ccc(O)c(Br)c3)C2=O)cc1`, the pIC50 – broadly, −log10 of the IC50, conventionally taken in molar units – in assay [1] is 7.05.

Consider `COc1ccc(N2C/C(=C/c3ccc(O)c(Br)c3)OC2=O)cc1`, for which, in assay [1], the pIC50 is 6.17.

Regarding `COc1ccc(N2C(=O)N/C(=C\c3ccc(O)c(Br)c3)C2=O)cc1`, in [1], the IC50 result is “Not Active”.

For the compound `COc1ccc(N2C(=O)/C(=C/c3ccc(O)c(Br)c3)OC2=S)cc1`, the pIC50 in assay [1] is 7.89.

In the case of `COc1ccc(-n2cnn(Cc3ccc(O)c(Br)c3)c2=O)cc1`, in assay [1], the negative-log IC50 (pIC50) was 5.24.

In the case of `COc1ccc(-n2cc(Cc3ccc(O)c(Br)c3)sc2=O)cc1`, the pIC50 in assay [1] is 6.24.

On to `COc1ccc(N2C(=O)OC(Cc3ccc(O)c(Br)c3)C2=O)cc1` (configuration not stated), for which the pIC50 in assay [1] is 6.52.

On to `COc1ccc(N2C(=O)O/C(=C\c3ccc(O)c(Br)c3)C2=O)cc1`, for which the pIC50 in assay [1] is 7.64.

Regarding `COc1ccc(N2C(=O)/C(=C/c3ccc(O)c(Br)c3)N(C)C2=O)cc1`, the IC50 entry in assay [1] is listed as “Not Active”.

In the case of `COc1ccc(N2C(=O)/C(=C/c3ccc(O)c(Br)c3)SC2=S)cc1`, the inhibition entry in [2] and in assay [10] was “inactive” each time. The outcome in assay [3], in assay [6], in assay [7], in assay [9], in assay [12] and in assay [13] was inactive. The inhibition (usually the change of the read-out against control, counted positive when it falls) in assay [4] came out at 23%. Further, the pIC50 was 7.40 in assay [5], 7.85 in assay [1], 8.22 in assay [8] and 9.22 in assay [11].
